Consider 10 molecules from patent US6632828B2, “Substituted imidazole neuropeptide Y Y5 receptor antagonists” (Schering Corporation, priority 1999, dated 2003).

Molecules are shown by their SMILES.

The assay deals with T1, Human NPY Y5 receptors (Homo sapiens, UniProt Q15761).
T1 construct: expressed in transfected cells; host or cells: CHO cells (membrane protein)
T1 sequence (Q15761 1-445): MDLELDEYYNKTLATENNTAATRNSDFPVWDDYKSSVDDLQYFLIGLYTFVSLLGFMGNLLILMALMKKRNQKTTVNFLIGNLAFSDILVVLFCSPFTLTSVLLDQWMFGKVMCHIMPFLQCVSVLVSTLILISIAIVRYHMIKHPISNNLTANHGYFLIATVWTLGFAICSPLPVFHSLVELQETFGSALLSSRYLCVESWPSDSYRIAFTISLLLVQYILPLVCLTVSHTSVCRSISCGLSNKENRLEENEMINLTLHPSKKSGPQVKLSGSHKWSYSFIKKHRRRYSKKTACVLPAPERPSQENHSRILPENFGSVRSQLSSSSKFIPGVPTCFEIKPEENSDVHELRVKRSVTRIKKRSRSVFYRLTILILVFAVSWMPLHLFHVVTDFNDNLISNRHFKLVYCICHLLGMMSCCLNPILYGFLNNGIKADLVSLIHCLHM
Nature of the assay: NPY Receptor Binding Assay. The note with it: Human NPY Y5 receptors expressed in CHO cells; 0.1 nM 125I-peptide YY; read-out: r/h Y5 Ki. Here is the method:
NPY Receptor Binding Assay
Human NPY Y5 receptors were expressed in CHO cells. Binding assays were performed in 50 mM HEPES, pH 7.2, 2.5 mM CaCl2, 1 mM MgCl2 and 0.1% BSA containing 5-10 μg of membrane protein and 0.1 nM ^125I-peptide YY in a total volume of 200 μl. Non-specific binding was determined in the presence of 1 uM NPY. The reaction mixtures were incubated for 90 minutes at room temperature, then filtered through Millipore MAFC glass fiber filter plates which had been pre-soaked in 0.5% polyethyleneimine. The filters were washed with phosphate-buffered saline, and radioactivity was measured in a Packard TopCount scintillation counter.
As to `O=C(Nc1cccc(-c2nc(-c3cccc(C(F)(F)F)c3)c[nH]2)c1)c1ccccc1` [Example 10A], the Ki worked out at 63 nM.
To `CS(=O)(=O)N1CCC(c2nc(-c3cc(Cl)cc(Cl)c3)c[nH]2)CC1` [Example 21C] belongs 2 nM; to `CS(=O)(=O)Nc1cccc(-c2nc(-c3cccc(C(F)(F)F)c3)c[nH]2)c1` [Example 5A], 1.4 nM.
For the molecule `CN(c1cccc(-c2nc(-c3cccc(C(F)(F)F)c3)c[nH]2)c1)S(C)(=O)=O` [Example 6A], the Ki amounted to 2.1 nM.
For `COC(=O)c1cccc(-c2nc(-c3cccc(C(F)(F)F)c3)c[nH]2)c1` [Example 1B], the Ki amounted to 52 nM.
To `FC(F)(F)c1cccc(-c2c[nH]c(C34CC5CC(CC(C5)C3)C4)n2)c1` [Example 1A] belongs 3 nM.
The same measure for `FC(F)(F)c1cccc(-c2c[nH]c(N3CCN(c4ccccn4)CC3)n2)c1` [Example 26]: 1.4 nM; for `FC(F)(F)c1cccc(-c2c[nH]c(C3=CCN(c4ccccn4)CC3)n2)c1` [Example 19]: 1.7 nM; for `FC(F)(F)c1cccc(-c2c[nH]c(-c3cccc(CN4CCCCC4)c3)n2)c1` [Example 3]: 17 nM.
The same measure for `O=C(Nc1ccccc1)c1cccc(-c2nc(-c3cccc(C(F)(F)F)c3)c[nH]2)c1` [Example 2A]: 315 nM.
